According to PubChem BioAssay (NCI):
Several values for one entry are separate records, joined by “and”; a condition that tells them apart may be missing. Equal values may be shown once.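 Five concentrations, 48 hours, 96-well plates. GI50 is the concentration that inhibits growth by half. TGI marks complete inhibition of growth.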

How the values were obtained:
Assay in all cases: NCI tumour cell line growth inhibition, 48 h
[1] = system: OVCAR-8 ovarian
[2] = system: M14 melanoma
[3] = system: ACHN renal
[4] = system: SR leukemia
[5] = system: OVCAR-3 ovarian
[6] = system: 786-0 renal
[7] = system: K-562 leukemia
[8] = system: HOP-92 NSCLC
[9] = system: BT-549 breast
[10] = system: T-47D breast

SMILES	TGI [1] [µM]	TGI [2]	TGI [3] [µM]	TGI [4] [µM]	TGI [5] [µM]	TGI [6]	TGI [7]	TGI [8]	GI50 [1] [µM]	GI50 [2] [µM]	GI50 [3] [µM]	GI50 [9] [µM]	TGI [9] [µM]	GI50 [10] [µM]	TGI [10] [µM]	GI50 [5] [µM]	GI50 [8] [µM]	GI50 [6] [µM]	GI50 [7] [µM]	GI50 [4] [µM]
CC(C)(C)c1cc(C(=O)O)c(C(c2ccccc2)c2ccccc2C(=O)O)c(C(=O)O)c1 (configuration not stated)	> 100	> 100 µM	40	> 100	> 100	> 100 µM	> 100 µM	–	–	–	–	–	–	–	–	–	–	–	–	–
CCCCOP1(=O)C=CC(Cl)=C(C)C1 (configuration not stated)	51.3	> 100 µM	36.3	39.4	77.7	49.3 µM	50 µM	54.5 µM	–	–	–	–	–	–	–	–	–	–	–	–
O=C1Cc2ccccc2CCc2ccccc21	> 100	> 100 µM	> 100	> 100	> 100	> 100 µM	> 100 µM	> 100 µM	–	–	–	–	–	–	–	–	–	–	–	–
CC(C)(C)OC(=O)n1c(Cl)c(C(=O)N=C=S)c2ccccc21	66.1	> 100 µM	> 100	–	72.9	> 100 µM	> 100 µM	65.4 µM	23.3	> 100	29.5	30.9	91.7	47.8	> 100	25.6	17.2	80	47	–
NC(=O)c1ncn(C2OC(CO)C(O)C2O)c1NC(=S)NC(=O)c1ccccc1 (configuration not stated)	> 100	> 100 µM	> 100	> 100	> 100	> 100 µM	> 100 µM	> 100 µM	–	–	–	–	–	–	–	–	–	–	–	–
O=c1ncccn1C1OC(CO)C(O)C1F (configuration not stated)	> 100	> 100 µM	> 100	> 100	> 100	> 100 µM	> 100 µM	> 100 µM	–	–	–	–	–	–	–	–	–	–	> 100	–
CN1C(=O)CC2(C)c3cc(C=O)ccc3N(C)C12 (configuration not stated)	> 100	> 100 µM	> 100	–	> 100	> 100 µM	> 100 µM	> 100 µM	–	–	–	–	–	–	–	–	–	–	–	–
Cc1cc(N(CCC#N)CCC#N)ccc1/C=C/C(=O)Nc1ccccc1Cl	> 100	> 100 µM	> 100	–	> 100	> 100 µM	> 100 µM	> 100 µM	–	–	–	–	–	–	–	–	–	–	–	–
CC1(C)Oc2ccccc2N2O[C@@H]3C(=O)N(c4ccccc4)C(=O)[C@@H]3C21c1ccccc1 (some centres not stated)	–	46.4 µM	–	–	47	30.3 µM	> 100 µM	–	–	–	–	–	–	–	–	–	–	–	–	–
N=C(N)SCC(=O)O	> 100	> 100 µM	> 100	–	> 100	> 100 µM	> 100 µM	> 100 µM	–	–	–	–	> 100	–	> 100	–	–	–	–	–
Nc1nc(Cl)cc(NCCCCCCNc2cc(Cl)nc(N)n2)n1	> 100	> 100 µM	22.5	> 100	> 100	> 100 µM	> 100 µM	> 100 µM	–	–	–	–	–	–	–	–	–	–	–	–
CC[C@H](C)[C@H](NC(=O)N[C@@H](C)c1ccccc1)C(=O)N(C)[C@H](C[C@@H](OC(C)=O)c1nc(C(=O)N[C@@H](Cc2ccccc2)C[C@H](C)C(=O)OC)cs1)C(C)C	> 100	46.7 µM	> 100	–	42.2	82.2 µM	–	90.5 µM	35.4	15.9	29.3	21.4	74.9	97.9	> 100	16.9	11.1	22.9	–	–
Cc1cc(S(N)(=O)=O)c(S/C(=N\NS(=O)(=O)c2ccccc2)c2ccc(Cl)c(Cl)c2)cc1Cl	> 100	> 100 µM	92.7	> 100	72.7	> 100 µM	> 100 µM	> 100 µM	32.3	92.3	30	38.8	> 100	–	–	25.8	93.4	54.9	32.9	27.9
CCC1(Cl)C(=O)NC(=O)N(C2CC(O)C(CO)O2)C1N=[N+]=[N-] (configuration not stated)	> 100	> 100 µM	> 100	–	> 100	> 100 µM	> 100 µM	> 100 µM	–	–	–	–	–	–	–	–	–	–	–	–
C=CCN(N=O)C(=O)ON1C(=O)CCC1=O	> 100	> 100 µM	> 100	–	> 100	> 100 µM	> 100 µM	> 100 µM	–	–	–	–	–	–	–	–	–	–	–	–
NCCNc1nc2ccccc2c2c(=O)c3cc(F)cc(Cl)c3sc12	3.57	3.03 µM	2.99	–	3.18	3.14 µM	1.03 µM	3.06 µM	1.61	1.65	1.63	1.55	2.93	1.55	3.48	1.72	1.39	1.64	0.261	–
O=C(O)C(Cc1c[nH]c2ccccc12)N1C(=O)c2ccccc2C1=O (configuration not stated)	> 100	> 100 µM	> 100	–	> 100	> 100 µM	–	> 100 µM	–	–	–	–	> 100	–	> 100	–	–	–	–	–
O=C(/C(=N/Nc1cn[nH]c(=O)c1Cl)c1ccccc1)c1ccccc1	> 100	> 100 µM	> 100	–	56.2	68.7 µM	> 100 µM	> 100 µM	–	–	–	–	–	–	62.7	–	–	–	–	–
COc1cc(-c2nn3c(=O)n(-c4ccc(Cl)cc4)c(=O)nc3s2)cc(OC)c1OC	> 100	50 µM and > 100 µM	> 67.7	–	> 100	50 µM and 41.4 µM	50 µM and > 31.6 µM	50 µM and 59.7 µM	–	28	> 50	–	–	–	–	–	44.4	17.4	15.8	–
CC12O[Te]34OC1(C)C(C)(O3)C2(C)O4	24.4	33.7 µM	27	34	30.4	29.3 µM	–	–	–	–	–	–	–	–	–	–	–	–	–	–
O=C1Nc2ccc(Br)cc2C1=Nc1ccc(Cl)cc1	26.7	72.2 µM	39.1	> 100	40	> 100 µM	73.3 µM	> 100 µM	–	–	–	–	–	–	> 100	–	–	–	–	–
